In the supplement of paper PMC5908809:

Experiments:
[1] = system: normal NK cells expanded with K562-aAPC; test: drug sensitivity score (DSS) (DSS units); higher = more sensitive; extreme values may be limits of the assay; conditions: 72 h; IL-2 2.5 ng/mL
Experimental: (§1)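 Drug sensitivity and resistance testing on K562-aAPC-expanded normal NK cells: 5 concentrations (10-fold steps over a 10,000-fold range), 72 h at 37 °C, viability by CellTiter-Glo normalised to DMSO and benzethonium chloride controls; DSS from the fitted curve.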

NK-YS (IL-2 2.5 ng/mL) [2] = test: as above; conditions: 72 h
KHYG-1 (IL-2 2.5 ng/mL) [3] = test: as above; conditions: 72 h
[4] = system: normal primary NK cells, pool 1 (3 donors), resting (IL-2 0 ng/mL); test: as above; conditions: 72 h
[5] = system: normal primary NK cells, pool 1 (3 donors) (IL-2 2.5 ng/mL); test: as above; conditions: 72 h
YT (IL-2 2.5 ng/mL) [6] = test: as above; conditions: 72 h
DERL-7 (IL-2 2.5 ng/mL) [7] = test: as above; conditions: 72 h
KAI3 (IL-2 2.5 ng/mL) [8] = test: as above; conditions: 72 h
NKL (IL-2 2.5 ng/mL) [9] = test: as above; conditions: 72 h
SNK-6 (IL-2 2.5 ng/mL) [10] = test: as above; conditions: 72 h
IMC-1 (IL-2 20 ng/mL) [11] = test: as above; conditions: 72 h
[12] = system: normal primary NK cells, pool 3 (3 donors) (IL-2 2.5 ng/mL); test: as above; conditions: 72 h
NK-92 (IL-2 2.5 ng/mL) [13] = test: as above; conditions: 72 h
[14] = system: normal primary NK cells, pool 2 (3 donors) (IL-2 2.5 ng/mL); test: as above; conditions: 72 h
NK-YS (IL-2 2.5 ng/mL) [15] = test: percent inhibition of viability; higher = more inhibition; conditions: 72 h
KHYG-1 (IL-2 2.5 ng/mL) [16] = test: as above; conditions: 72 h
[17] = system: normal primary NK cells, pool 1 (3 donors), resting (IL-2 0 ng/mL); test: as above; conditions: 72 h
[18] = system: normal primary NK cells, pool 1 (3 donors) (IL-2 2.5 ng/mL); test: as above; conditions: 72 h
YT (IL-2 2.5 ng/mL) [19] = test: as above; conditions: 72 h
DERL-7 (IL-2 2.5 ng/mL) [20] = test: as above; conditions: 72 h
KAI3 (IL-2 2.5 ng/mL) [21] = test: as above; conditions: 72 h
NKL (IL-2 2.5 ng/mL) [22] = test: as above; conditions: 72 h
SNK-6 (IL-2 2.5 ng/mL) [23] = test: as above; conditions: 72 h
IMC-1 (IL-2 20 ng/mL) [24] = test: as above; conditions: 72 h
[25] = system: normal primary NK cells, pool 3 (3 donors) (IL-2 2.5 ng/mL); test: as above; conditions: 72 h
NK-92 (IL-2 2.5 ng/mL) [26] = test: as above; conditions: 72 h
[27] = system: normal primary NK cells, pool 2 (3 donors) (IL-2 2.5 ng/mL); test: as above; conditions: 72 h
[28] = system: normal NK cells expanded with K562-aAPC; test: as above; conditions: 72 h, IL-2 2.5 ng/mL
Experimental: as §1

Nc1ncnc2c1nc(Cl)n2[C@@H]1O[C@H](CO)[C@@H](O)[C@H]1O [8-chloro-adenosine] (max concentration tested 50000 nM)
Conditions | drug sensitivity score
DERL-7 (IL-2 2.5 ng/mL) [7] | 22.6
IMC-1 (IL-2 20 ng/mL) [11] | 2.97
KAI3 (IL-2 2.5 ng/mL) [8] | 21.9
KHYG-1 (IL-2 2.5 ng/mL) [3] | 14
NK-92 (IL-2 2.5 ng/mL) [13] | 9.34
NK-YS (IL-2 2.5 ng/mL) [2] | 16.3
NKL (IL-2 2.5 ng/mL) [9] | 9.19
SNK-6 (IL-2 2.5 ng/mL) [10] | 23.8
YT (IL-2 2.5 ng/mL) [6] | 12.5
[1] | 8.27
[4] | 8.97
[5] | 8.37
[12] | 5.7
[14] | 7.63

percent inhibition of viability [%]
Conditions | 5 nM | 50 nM | 500 nM | 5000 nM | 50000 nM
DERL-7 (IL-2 2.5 ng/mL) [20] | -0.76 | -2.87 | 38.2 | 96.9 | 101
IMC-1 (IL-2 20 ng/mL) [24] | -4.61 | -4.66 | -2.73 | -11.7 | 66.7
KAI3 (IL-2 2.5 ng/mL) [21] | -13.1 | -12.4 | 38.3 | 86.7 | 92.9
KHYG-1 (IL-2 2.5 ng/mL) [16] | -6.84 | -4.5 | 1.43 | 75.4 | 94
NK-92 (IL-2 2.5 ng/mL) [26] | -20.2 | -17.7 | 8.7 | 44.5 | 64
NK-YS (IL-2 2.5 ng/mL) [15] | -8.76 | -5.07 | 22.4 | 73.6 | 92.2
NKL (IL-2 2.5 ng/mL) [22] | -21.8 | -24.6 | -10.7 | 40.7 | 75.6
SNK-6 (IL-2 2.5 ng/mL) [23] | 21.5 | 20.6 | 46.5 | 92.8 | 96.9
YT (IL-2 2.5 ng/mL) [19] | -2.82 | -1.05 | 1.56 | 66.9 | 72.2
[17] | -17.2 | -29.2 | -19.8 | 36.1 | 78.2
[18] | -2.27 | -6.47 | -3.95 | 30.1 | 77.2
[25] | -18.1 | -3.17 | -4.4 | 17.3 | 57.7
[27] | -8.69 | 0.94 | 1.41 | 28 | 71.1
[28] | -0.51 | -6.13 | 2.57 | 35.4 | 73

COc1cc(O)c2c(c1)/C=C/C[C@H](O)[C@H](O)C(=O)/C=C\C[C@H](C)OC2=O [(5Z)-7-Oxozeaenol] (max concentration tested 10000 nM)
Conditions | drug sensitivity score
DERL-7 (IL-2 2.5 ng/mL) [7] | 14.1
IMC-1 (IL-2 20 ng/mL) [11] | 2.11
KAI3 (IL-2 2.5 ng/mL) [8] | 12.6
KHYG-1 (IL-2 2.5 ng/mL) [3] | 15.6
NK-92 (IL-2 2.5 ng/mL) [13] | 9.5
NK-YS (IL-2 2.5 ng/mL) [2] | 11
NKL (IL-2 2.5 ng/mL) [9] | 20.5
SNK-6 (IL-2 2.5 ng/mL) [10] | 8.87
YT (IL-2 2.5 ng/mL) [6] | 11.4
[1] | 8.28
[4] | 12
[5] | 12.1
[12] | 7.72
[14] | 8.91

percent inhibition of viability [%]
Conditions | 1 nM | 10 nM | 100 nM | 1000 nM | 10000 nM
DERL-7 (IL-2 2.5 ng/mL) [20] | -5.8 | 2.14 | 10.7 | 66.3 | 101
IMC-1 (IL-2 20 ng/mL) [24] | -4.21 | -3.28 | -4.71 | -7.11 | 48.9
KAI3 (IL-2 2.5 ng/mL) [21] | 0.25 | 0.75 | 5.8 | 59 | 105
KHYG-1 (IL-2 2.5 ng/mL) [16] | 0.21 | -0.62 | 3.17 | 83.9 | 109
NK-92 (IL-2 2.5 ng/mL) [26] | -20.1 | -30 | -17.5 | 26.2 | 104
NK-YS (IL-2 2.5 ng/mL) [15] | -3.96 | -2.39 | 8.28 | 41.9 | 105
NKL (IL-2 2.5 ng/mL) [22] | -8.24 | 17.5 | 38.5 | 80 | 110
SNK-6 (IL-2 2.5 ng/mL) [23] | -2.4 | -7.72 | -14.8 | 23.5 | 95
YT (IL-2 2.5 ng/mL) [19] | -2.81 | -5.3 | 6.58 | 46.2 | 105
[17] | -25.1 | 10.7 | 9.8 | 54.5 | 92
[18] | -6.25 | 6.9 | 22.8 | 45.6 | 98.5
[25] | -13.2 | 9.87 | 4.11 | 13.6 | 98.2
[27] | -15.9 | 1.06 | 2.6 | 22.8 | 96.8
[28] | -4.98 | -3.35 | -1.51 | 18.7 | 94.8
